Laboratory results from ChEMBL document CHEMBL1806496, “Nothospondin, a new AP-1 inhibitory quassinoid from the Cameroonian plant Nothospondias staudtii” (Bioorg Med Chem Lett, 2011).

Legend:
[1] = biological target: Transcription factor Jun (Homo sapiens, UniProt P05412); test: Inhibition of TPA-induced AP-1 activity expressed in human HEK293T cells treated 1 hr before TPA challenge measured after 18 hrs by FRET based beta-lactamase reporter assay; assay type: cell-based, HEK-293T; details: for inhibition: HEK-293T
Chain of Transcription factor Jun (P05412 whole entry): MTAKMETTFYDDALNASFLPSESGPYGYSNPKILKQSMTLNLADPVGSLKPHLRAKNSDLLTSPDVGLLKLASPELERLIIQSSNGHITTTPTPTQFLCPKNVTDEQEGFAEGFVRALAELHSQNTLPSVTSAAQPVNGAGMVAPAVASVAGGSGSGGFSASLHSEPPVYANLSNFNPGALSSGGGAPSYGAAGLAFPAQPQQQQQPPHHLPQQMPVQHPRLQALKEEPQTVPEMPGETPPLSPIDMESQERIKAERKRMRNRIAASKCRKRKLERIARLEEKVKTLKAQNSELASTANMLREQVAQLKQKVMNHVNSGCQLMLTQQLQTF

[2] = tested on: HEK-293T; test: Cytotoxicity against human HEK293T cells expressing AP-1 at 80 uM after 18 hrs by XTT assay; assay type: cell-based
[3] = tested on: HEK-293T; test: Cytotoxicity against human HEK293T cells expressing AP-1 after 18 hrs by XTT assay; assay type: cell-based

For `CC[C@](C)(O)C(=O)O[C@H]1C(=O)O[C@@H]2C[C@H]3C(C)=CC(=O)[C@@H](O)[C@]3(C)[C@H]3[C@@]4(O)OC[C@]32[C@@H]1[C@@H](C)[C@H]4O` [GLAUCARUBINONE], the EC50 [1] was 130 nM, the inhibition [1] was “Dose-dependent effect” and the Activity [2] was “Non-toxic”.

For `COC1=C(C)[C@@H]2CC(=O)O[C@@H]3C[C@H]4[C@H](C)[C@@H](O)[C@H](O)C(=O)[C@]4(C)[C@@H](C1=O)[C@@]32C` [NOTHOSPONDIN], the EC50 [1] was 1490 nM, the inhibition [1] was “Dose-dependent effect” and the IC50 [3] was 10 µM.
